Measured values reported in PubChem BioAssay (NCI).
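Values below derive from 48-hour exposures of cells grown in 96-well plates, with endpoints linearly interpolated between the two concentrations bracketing the appropriate inhibition level. The concentration for 50% growth inhibition is given as GI50. TGI marks complete inhibition of growth.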

Key:
Assay in all cases: NCI-60 cell line screen, 48 h
[1] = test system: NCI-H226 lung
[2] = test system: NCI-H23 lung
[3] = test system: NCI-H460 lung
[4] = test system: NCI-H522 lung
[5] = test system: NCI/ADR-RES ovarian
[6] = test system: OVCAR-3 ovarian
[7] = test system: OVCAR-4 ovarian
[8] = test system: OVCAR-5 ovarian
[9] = test system: OVCAR-8 ovarian
[10] = test system: PC-3 prostate
[11] = test system: RPMI-8226 leukemia
[12] = test system: RXF 393 renal
[13] = test system: SF-268 CNS
[14] = test system: SF-295 CNS
[15] = test system: SF-539 CNS
[16] = test system: SK-MEL-2 melanoma
[17] = test system: SK-MEL-28 melanoma
[18] = test system: SK-MEL-5 melanoma
[19] = test system: SK-OV-3 ovarian
[20] = test system: SN12C renal
[21] = test system: SNB-19 CNS
[22] = test system: SNB-75 CNS
[23] = test system: SW-620 colon
[24] = test system: T-47D breast
[25] = test system: TK-10 renal
[26] = test system: U251 CNS
[27] = test system: UACC-257 melanoma
[28] = test system: UACC-62 melanoma
[29] = test system: UO-31 renal

SMILES: CC(C)(C)CC(C)(C)c1ccc(OCCSC(=N)N)cc1
- TGI [1]: 5830 nM
- GI50 [2]: 1810 nM
- TGI [2]: 3680 nM
- GI50 [3]: 1890 nM
- TGI [3]: 3870 nM
- GI50 [4]: 1590 nM
- TGI [4]: 3450 nM
- GI50 [5]: 1870 nM
- TGI [5]: 3880 nM
- GI50 [6]: 1470 nM
- TGI [6]: 2890 nM
- GI50 [7]: 1430 nM
- TGI [7]: 2910 nM
- GI50 [8]: 1880 nM
- TGI [8]: 3770 nM
- GI50 [9]: 2080 nM
- TGI [9]: 5080 nM
- GI50 [10]: 1610 nM
- TGI [10]: 4170 nM
- GI50 [11]: 1360 nM
- TGI [11]: 3590 nM
- GI50 [12]: 1180 nM
- TGI [12]: 2580 nM
- GI50 [13]: 2010 nM
- TGI [13]: 4050 nM
- GI50 [14]: 1690 nM
- TGI [14]: 3120 nM
- GI50 [15]: 1750 nM
- TGI [15]: 3350 nM
- GI50 [16]: 1960 nM
- TGI [16]: 3700 nM
- GI50 [17]: 1700 nM
- TGI [17]: 3340 nM
- GI50 [18]: 1370 nM
- TGI [18]: 2680 nM
- GI50 [19]: 2570 nM
- TGI [19]: 5540 nM
- GI50 [20]: 1680 nM
- TGI [20]: 3210 nM
- GI50 [21]: 1700 nM
- TGI [21]: 3450 nM
- GI50 [22]: 1430 nM
- TGI [22]: 2790 nM
- GI50 [23]: 1450 nM
- TGI [23]: 3340 nM
- GI50 [24]: 1630 nM
- TGI [24]: 3910 nM
- GI50 [25]: 1760 nM
- TGI [25]: 3340 nM
- GI50 [26]: 1570 nM
- TGI [26]: 3170 nM
- GI50 [27]: 1720 nM
- TGI [27]: 3450 nM
- GI50 [28]: 1720 nM
- TGI [28]: 3160 nM
- GI50 [29]: 1580 nM
- TGI [29]: 3970 nM
